Assay results reported in US5502065A, “Indole derivatives as 5-HT1 -like agonists” (Pfizer Inc., priority 1992, dated 1996).
Where two headings read alike, the source gives them in different places.

What was measured:
[1] = molecular target: T1, "5-HT1 -like" receptor (Canis lupus familiaris, UniProt P79250); assay: contraction of dog isolated saphenous vein strip ("5-HT1 -like" receptor agonist activity); conditions: for Emax: read-out: […] RELATIVE TO 5-HT RESPONSE, relative to 5-HT response, read-out: PERCENTAGE AGONISM RELATIVE TO 5-HT RESPONSE
T1 construct: dog isolated saphenous vein strip; from tissue; host or cells: dog isolated saphenous vein strip
T1 sequence (P79250 whole entry): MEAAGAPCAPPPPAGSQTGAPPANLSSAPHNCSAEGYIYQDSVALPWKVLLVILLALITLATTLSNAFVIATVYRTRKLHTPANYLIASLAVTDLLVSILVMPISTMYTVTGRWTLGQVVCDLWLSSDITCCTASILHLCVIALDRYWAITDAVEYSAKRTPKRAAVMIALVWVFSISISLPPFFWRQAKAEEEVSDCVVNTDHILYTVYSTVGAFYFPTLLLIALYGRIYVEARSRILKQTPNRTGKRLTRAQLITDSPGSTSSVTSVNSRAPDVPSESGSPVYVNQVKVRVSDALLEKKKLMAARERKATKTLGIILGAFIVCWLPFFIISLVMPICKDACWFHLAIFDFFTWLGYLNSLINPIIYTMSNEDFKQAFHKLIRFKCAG
Protocol: The in vitro evaluation of the "5-HT1 -like" receptor agonist activity of the compounds of the formula (I) is carried out by testing the extent to which they mimic sumatriptan in contracting the dog isolated saphenous vein strip (P. P. A. Humphrey et al., .Br. J. Pharmacol., 94, 1123 (1988)).
The in vitro evaluation of the "5-HT1 -like" receptor agonist activity of the compounds of the invention is carried out by testing the extent to which they mimic sumatriptan in contracting the isolated dog saphenous vein strip (P. P. A. Humphrey et al., Brit. J. Pharmacol., 1988, 94, 1123).
EC50 represents the concentration of compound which causes 50% of the maximum contraction effected by it.

[2] = tested on: carotid vascular bed; conditions: anaesthetized dog, cited from earlier work
[3] = molecular target: T1, "5-HT1 -like" receptor; conditions: dog isolated saphenous vein strip; cited from earlier work
[4] = dog isolated saphenous vein strip

| Compound | EC50 [1] | Emax [1, 4] | further results |
| --- | --- | --- | --- |
| CN1CCC[C@@H]1Cc1c[nH]c2ccc(-c3cccc(S(N)(=O)=O)c3)cc12 [Example 3] | 3.78 nM | 85% | – |
| OCc1ccc(-c2ccc3[nH]cc(C[C@H]4CCCN4)c3c2)cc1 [Example 37, 5-(4-Hydroxymethylphenyl)-3-(pyrrolidin-2(R)-ylmethyl)-1H-indole] | 76 nM | 72% | – |
| CN(C)C(=O)CCN1CCC[C@@H]1Cc1c[nH]c2ccc(-c3cccc(C(=O)N(C)C)c3)cc12 [Example 46, 3-1-(2-N,N-dimethylcarbamoylethyl)pyrrolidin-2(R)-ylmethyl!5-(3-N,N-dimethylcarbamoylphenyl)-1H-indole] | – | 78% | EC50 ([1]; dog isolated saphenous vein strip, concentration of compound which causes 50% of the maximum contraction effected by it, read-out: EC50): 160 nM |
| CN1CCC[C@@H]1Cc1c[nH]c2ccc(-c3cncc(C#N)c3)cc12 [Example 53] | 26 nM | 75% | – |
| c1ncc(-c2ccc3[nH]cc(C[C@H]4CCCN4CC4CC4)c3c2)cn1 [Example 60, 3-(1-Cyclopropylmethylpyrrolidin-2(R)-ylmethyl)-5-(5-pyrimidinyl)-1H-indole] | 9.2 nM | 105% | – |
| CN1CCC[C@@H]1Cc1c[nH]c2ccc(-c3ccc(C(N)=O)s3)cc12 [Example 64, 5-(5-Carbamoyl-2-thienyl)-3-(1-methylpyrrolidin-2(R)-ylmethyl)-1H-indole] | 25 nM | 79% | – |
| CN1CCC[C@@H]1Cc1c[nH]c2ccc(-c3ccc(CO)o3)cc12 [Example 66, 5-(5-Hydroxymethyl-2-furyl)-3-(1-methylpyrrolidin-2(R)-ylmethyl)-1H -indole] | 19 nM | 80% | – |
| CNS(=O)(=O)Cc1ccc2[nH]cc(CCN(C)C)c2c1 [Sumatriptan] | – | – | carotid vascular resistance [2]: selective increase; carotid arterial blood flow ([2]; consequent on increased carotid vascular resistance): decrease |
| CSc1ccc2c(c1)C(N1CCN(C)CC1)Cc1ccccc1S2 (centres unmarked) [methiothepin] | – | – | block of saphenous vein contraction (5-HT antagonism) [3]: can be blocked |
